PMC11183015, “In vivo stable ^211At-labeled prostate-specific membrane antigen-targeted tracer using a neopentyl glycol structure” (EJNMMI Radiopharmacy and Chemistry, 2024)
Marks after values point to notes of the source that are not given here. One block for each molecule: values may come before it.

Columns and labels:
[1] = Lipophilicity (log D7.4), 1-octanol/PBS pH 7.4; format: physicochemical
Method: [^125I]I-NpG-D-PSMA (3.7 kBq) was mixed with equal amounts (3.0 mL) of 1-octanol and PBS buffer (pH 7.4). The mixture was vortexed for 1 min and allowed to stand for 1 min. After repeating the procedure five times, the mixture was centrifuged at 1,500 g (3740, Kubota, Tokyo) for 10 min. Samples (0.2-2 mL) were taken from each phase and their radioactivity was measured with an auto-well γ-counter. The partition coefficient was determined by calculating the ratio of the counts per minute in the 1-octanol phase to that in the buffer phase and expressed as common logarithm. The results represent the mean of three measurements.

PSMA = PSMA (Homo sapiens, UniProt Q04609); assay: Blocking study with 2-PMPA in tumor-bearing mice; format: in vivo, mouse; set-up: Tumor accumulation of [^125I]I-NpG-D-PSMA with or without 2-PMPA; from tissue; host or cells: LNCaP xenograft tumor in male BALB/c-nu/nu mice; settings: LNCaP tumor-bearing mice, 2-PMPA 50 mg/kg coinjected, 1 h
Method: (§1) Biodistribution studies were conducted using male BALB/c-nu/nu mice bearing LNCaP cell xenografts at 1 and 3 h postinjection of [^211At]At-NpG-D-PSMA (100 µL, 37 kBq) and 1 and 6 h postinjection of ^125I-labeled PSMA derivative (100 µL, 11.1 kBq). In the blocking study, [^125I]I-NpG-D-PSMA was coinjected with 2-PMPA (50 mg/kg weight) into tumor-bearing mice via the tail vein. At 1 h postinjection, the mice were sacrificed. The tissues of interest were excised and weighed, and the radioactivity counts in each tissue were determined using an auto-well gamma counter. Each value was expressed as the mean percent injected dose/g tissue ± SD for a group of 3–5 animals, except those for the stomach, intestine, and thyroid.

LNCaP cell xenografts = assay: Biodistribution of radioactivity in tumor-bearing mice; format: in vivo, mouse; settings: for Radioactivity in Intestine / Radioactivity in Neck / Radioactivity in Stomach: LNCaP tumor-bearing BALB/c-nu/nu mice; for Radioactivity in Blood / Radioactivity in Bone / Radioactivity in Heart / Radioactivity in Kidney / Radioactivity in Liver / Radioactivity in Lung / Radioactivity in Muscle / Radioactivity in Pancreas / Radioactivity in Spleen / Radioactivity in Tumor: male, BALB/c-nu/nu, mouse, in vivo
Method: Animal studies were conducted in accordance with the institutional guidelines approved by the Chiba University Animal Care Committee (Permit No. 4–183). Five-week-old male ddY mice and BALB/c-nu/nu mice were purchased from Japan SLC Inc. (Hamamatsu, Japan). LNCaP cells (5.0 × 10^6 cells) were suspended in 100 μL of PBS and Matrigel (BD Biosciences, Franklin Lakes, NJ, USA) in a 1:1 ratio. Tumor xenograft models were prepared via subcutaneous injection of this LNCaP cell suspension into BALB/c nude mice.
as §1

[2] = Biodistribution of radioactivity in normal mice; format: in vivo, mouse
Method: Six-week-old male ddY mice were injected via the tail vein with each radiolabeled PSMA derivative. Animals were sacrificed and the organs were dissected at 10 min, 1 h, 3 h, and 6 h after injection. Metabolic cages were used for housing normal mice. The tissues of interest were excised and weighed, and the radioactivity counts in each tissue were determined using an auto-well gamma counter. Each value was expressed as the mean percent injected dose/g tissue ± SD for a group of 3–5 animals, except those for the stomach, intestine, and thyroid.

[3] = Analysis of radiometabolites in urine by RP-HPLC; format: in vivo, mouse; settings: normal ddY mice, urine up to 6 h after injection
Method: Urine samples were collected from 6-week-old ddY mice 6 h after injection of each ^125I-labeled PSMA derivative (100 µL, 370 kBq). After ethanol precipitation of proteins, the urine samples were filtered through a polycarbonate membrane (0.45 µm) and analyzed by RP-HPLC (System 2).

[4] = normal ddY mice, i.v., 6 h, metabolic cages

PSMA, sequence (Q04609 whole entry): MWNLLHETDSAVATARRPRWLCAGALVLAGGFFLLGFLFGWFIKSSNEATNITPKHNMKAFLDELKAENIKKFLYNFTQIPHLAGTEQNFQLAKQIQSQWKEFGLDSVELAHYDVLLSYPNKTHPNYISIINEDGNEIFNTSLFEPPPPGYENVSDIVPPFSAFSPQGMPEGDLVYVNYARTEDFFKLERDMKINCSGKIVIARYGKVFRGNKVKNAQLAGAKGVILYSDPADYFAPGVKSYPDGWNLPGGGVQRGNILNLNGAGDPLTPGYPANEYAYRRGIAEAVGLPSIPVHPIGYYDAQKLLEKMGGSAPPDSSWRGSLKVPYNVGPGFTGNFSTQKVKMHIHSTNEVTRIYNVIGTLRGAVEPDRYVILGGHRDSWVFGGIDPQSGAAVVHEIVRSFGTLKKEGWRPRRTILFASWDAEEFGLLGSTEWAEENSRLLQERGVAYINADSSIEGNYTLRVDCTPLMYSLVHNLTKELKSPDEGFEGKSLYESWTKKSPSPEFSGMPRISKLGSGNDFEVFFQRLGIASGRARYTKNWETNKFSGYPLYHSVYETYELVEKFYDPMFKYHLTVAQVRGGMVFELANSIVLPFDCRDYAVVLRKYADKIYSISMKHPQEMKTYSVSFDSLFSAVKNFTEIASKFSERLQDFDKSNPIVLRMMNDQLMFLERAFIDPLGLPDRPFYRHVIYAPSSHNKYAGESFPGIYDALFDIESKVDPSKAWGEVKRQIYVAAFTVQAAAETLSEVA

logD [1]: -3.14 ± 0.03
Structure (SMILES): O=C(O)CCC(NC(=O)NC(CCCCNC(=O)C(Cc1ccc2ccccc2c1)NC(=O)C(CCC(=O)O)NC(=O)C(CCC(=O)O)NC(=O)COCC(CO)(CO)C[125I])C(=O)O)C(=O)O [[^125I]I-NpG-D-PSMA] [listing 1 of 2 here]

Accumulation in the tumor and spleen with coinjected 2-PMPA (PSMA): inhibited by 2-PMPA | Radioactivity in Intestine (LNCaP cell xenografts; 1 h): 1.66 ± 0.29 %ID | Radioactivity in Neck (LNCaP cell xenografts; 1 h): 0.77 ± 0.17 %ID | Radioactivity in Stomach (LNCaP cell xenografts; 1 h): 0.19 ± 0.04 %ID | Radioactivity in Intestine (LNCaP cell xenografts; 6 h): 1.51 ± 0.61 %ID | Radioactivity in Neck (LNCaP cell xenografts; 6 h): 0.10 ± 0.01 %ID | Radioactivity in Stomach (LNCaP cell xenografts; 6 h): 0.17 ± 0.10 %ID | Radioactivity in Blood (LNCaP cell xenografts; 1 h): 0.64 ± 0.04 %ID/g | Radioactivity in Bone (LNCaP cell xenografts; 1 h): 0.25 ± 0.02 %ID/g | Radioactivity in Heart (LNCaP cell xenografts; 1 h): 0.89 ± 0.09 %ID/g | Radioactivity in Kidney (LNCaP cell xenografts; 1 h): 275 ± 17.6 %ID/g | Radioactivity in Liver (LNCaP cell xenografts; 1 h): 0.79 ± 0.06 %ID/g | Radioactivity in Lung (LNCaP cell xenografts; 1 h): 2.80 ± 0.09 %ID/g | Radioactivity in Muscle (LNCaP cell xenografts; 1 h): 0.27 ± 0.05 %ID/g | Radioactivity in Pancreas (LNCaP cell xenografts; 1 h): 0.84 ± 0.25 %ID/g | Radioactivity in Spleen (LNCaP cell xenografts; 1 h): 30.5 ± 7.49 %ID/g | Radioactivity in Tumor (LNCaP cell xenografts; 1 h): 20.4 ± 6.92 %ID/g | Radioactivity in Blood (LNCaP cell xenografts; 6 h): 0.06 ± 0.03 %ID/g | Radioactivity in Bone (LNCaP cell xenografts; 6 h): 0.07 ± 0.02 %ID/g | Radioactivity in Heart (LNCaP cell xenografts; 6 h): 0.10 ± 0.04 %ID/g | Radioactivity in Kidney (LNCaP cell xenografts; 6 h): 160 ± 89.9 %ID/g | Radioactivity in Liver (LNCaP cell xenografts; 6 h): 0.07 ± 0.03 %ID/g | Radioactivity in Lung (LNCaP cell xenografts; 6 h): 0.22 ± 0.09 %ID/g | Radioactivity in Muscle (LNCaP cell xenografts; 6 h): 0.07 ± 0.04 %ID/g | Radioactivity in Pancreas (LNCaP cell xenografts; 6 h): 0.12 ± 0.05 %ID/g | Radioactivity in Spleen (LNCaP cell xenografts; 6 h): 1.55 ± 0.75 %ID/g | Radioactivity in Tumor (LNCaP cell xenografts; 6 h): 20.8 ± 6.84 %ID/g | Radioactivity in Blood ([2]; normal ddY mice, i.v., 10 min): 1.31 ± 0.10^c %ID/g | Radioactivity in Bone ([2]; normal ddY mice, i.v., 10 min): 0.71 ± 0.07^c %ID/g | Radioactivity in Heart ([2]; normal ddY mice, i.v., 10 min): 0.76 ± 0.08^c %ID/g | Radioactivity in Intestine ([2]; normal ddY mice, i.v., 10 min): 2.76 ± 0.02^c %ID | Radioactivity in Kidney ([2]; normal ddY mice, i.v., 10 min): 58.5 ± 2.27^c %ID/g | Radioactivity in Liver ([2]; normal ddY mice, i.v., 10 min): 0.83 ± 0.12^c %ID/g | Radioactivity in Lung ([2]; normal ddY mice, i.v., 10 min): 2.11 ± 0.16^c %ID/g | Radioactivity in Muscle ([2]; normal ddY mice, i.v., 10 min): 0.47 ± 0.07^c %ID/g | Radioactivity in Neck ([2]; normal ddY mice, i.v., 10 min): 0.48 ± 0.06^c %ID | Radioactivity in Pancreas ([2]; normal ddY mice, i.v., 10 min): 0.63 ± 0.15^c %ID/g | Radioactivity in Spleen ([2]; normal ddY mice, i.v., 10 min): 2.09 ± 0.83 %ID/g | Radioactivity in Stomach ([2]; normal ddY mice, i.v., 10 min): 0.28 ± 0.06 %ID | Radioactivity in Blood ([2]; normal ddY mice, i.v., 1 h): 0.18 ±0.02 %ID/g | Radioactivity in Bone ([2]; normal ddY mice, i.v., 1 h): 0.30 ± 0.25 %ID/g | Radioactivity in Heart ([2]; normal ddY mice, i.v., 1 h): 0.14 ± 0.7 %ID/g | Radioactivity in Intestine ([2]; normal ddY mice, i.v., 1 h): 2.97 ± 0.24^c %ID | Radioactivity in Kidney ([2]; normal ddY mice, i.v., 1 h): 74.6 ± 14.9^c %ID/g | Radioactivity in Liver ([2]; normal ddY mice, i.v., 1 h): 0.17 ± 0.07 %ID/g | Radioactivity in Lung ([2]; normal ddY mice, i.v., 1 h): 0.38 ± 0.06 %ID/g | Radioactivity in Muscle ([2]; normal ddY mice, i.v., 1 h): 0.11 ± 0.08 %ID/g | Radioactivity in Neck ([2]; normal ddY mice, i.v., 1 h): 0.11 ± 0.03^c %ID | Radioactivity in Spleen ([2]; normal ddY mice, i.v., 1 h): 0.20 ± 0.01 %ID/g | Radioactivity in Stomach ([2]; normal ddY mice, i.v., 1 h): 0.18 ± 0.00 %ID | Radioactivity in Blood ([2]; normal ddY mice, i.v., 3 h): 0.04 ± 0.02 %ID/g | Radioactivity in Bone ([2]; normal ddY mice, i.v., 3 h): 0.21 ± 0.28 %ID/g | Radioactivity in Heart ([2]; normal ddY mice, i.v., 3 h): 0.05 ± 0.04 %ID/g | Radioactivity in Intestine ([2]; normal ddY mice, i.v., 3 h): 3.30 ± 0.08^c %ID | Radioactivity in Kidney ([2]; normal ddY mice, i.v., 3 h): 22.9 ± 16.5 %ID/g | Radioactivity in Liver ([2]; normal ddY mice, i.v., 3 h): 0.05 ± 0.03 %ID/g | Radioactivity in Lung ([2]; normal ddY mice, i.v., 3 h): 0.12 ± 0.05 %ID/g | Radioactivity in Muscle ([2]; normal ddY mice, i.v., 3 h): 0.05 ± 0.03 %ID/g | Radioactivity in Neck ([2]; normal ddY mice, i.v., 3 h): 0.03 ± 0.02^c %ID | Radioactivity in Pancreas ([2]; normal ddY mice, i.v., 3 h): 0.20 ± 0.31 %ID/g | Radioactivity in Spleen ([2]; normal ddY mice, i.v., 3 h): 0.07 ± 0.05 %ID/g | Radioactivity in Stomach ([2]; normal ddY mice, i.v., 3 h): 0.27 ± 0.10^c %ID | Radioactivity in Blood ([2]; normal ddY mice, i.v., 6 h): 0.03 ± 0.01 %ID/g | Radioactivity in Bone ([2]; normal ddY mice, i.v., 6 h): 0.16 ± 0.17 %ID/g | Radioactivity in Heart ([2]; normal ddY mice, i.v., 6 h): 0.03 ± 0.01 %ID/g | Radioactivity in Intestine ([2]; normal ddY mice, i.v., 6 h): 6.19 ± 4.27 %ID | Radioactivity in Kidney ([2]; normal ddY mice, i.v., 6 h): 17.5 ± 5.43^c %ID/g | Radioactivity in Liver ([2]; normal ddY mice, i.v., 6 h): 0.05 ±0.03 %ID/g | Radioactivity in Lung ([2]; normal ddY mice, i.v., 6 h): 0.08 ± 0.00^c %ID/g | Radioactivity in Muscle ([2]; normal ddY mice, i.v., 6 h): 0.06 ± 0.07 %ID/g | Radioactivity in Neck ([2]; normal ddY mice, i.v., 6 h): 0.07 ± 0.09 %ID | Radioactivity in Pancreas ([2]; normal ddY mice, i.v., 6 h): 0.09 ± 0.12 %ID/g | Radioactivity in Spleen ([2]; normal ddY mice, i.v., 6 h): 0.05 ± 0.05 %ID/g | Radioactivity in Stomach ([2]; normal ddY mice, i.v., 6 h): 0.86 ± 0.65 %ID | Radioactivity in Feces [2, 4]: 0.66 ± 0.50 %ID | Radioactivity in Urine [2, 4]: 30.7 ± 2.85^c %ID | Accumulation in the stomach and thyroid (stability against deiodination) ([2]; normal mice): low accumulation | Form of radioactivity excreted in urine [3]: only intact [^125I]I-NpG-D-PSMA
Structure (SMILES): O=C(O)CCC(NC(=O)NC(CCCCNC(=O)C(Cc1ccc2ccccc2c1)NC(=O)C(CCC(=O)O)NC(=O)C(CCC(=O)O)NC(=O)COCC(CO)(CO)C[125I])C(=O)O)C(=O)O [[^125I]I-NpG-D-PSMA] [listing 2 of 2 here]
